# Values quoted from earlier work as cited in PMC12308805, “Ultrahigh-Throughput Virtual Screening Strategies against PPI Targets: A Case Study of STAT Inhibitors” (Journal of Chemical Information and Modeling, 2025).
# Square brackets hold non-standard residues; d marks the D form. Ends that are not written are not given here. Peptide text beside a SMILES is read from it. * marks the point of attachment. Isobutyryl = CC(C)C(=O)*
# System: STAT3
# Conditions: sheet 6QHD_actives_decoys, retrospective screening set for STAT3 SH2 domain (PDB 6QHD); decoys are presumed inactives, not tested; ref DUD-E; cited from earlier work
row,Compound,Type
1,CC(=O)O[C@@H]1[C@@H](O)[C@@H](O[C@@H](C/N=C/c2c(O)ccc3ccccc23)[C@@H](CO)O[C@H](O)C/N=C/c2c(O)ccc3ccccc23)O[C@@H](CO)[C@H]1O [Decoy885],Inactive (Decoy)
2,CCOC(=O)CCCCC(=O)c1[nH]c(=O)[nH]c1CSc1nnc2c3ccccc3n(CCc3ccccc3)c2n1 [Decoy938],Inactive (Decoy)
3,CCCOc1ccc([C@@H]2C(C(=O)c3c(C)nc4ccccn34)=C(O)C(=O)N2CCN(CC)CC)cc1OCC [Decoy759],Inactive (Decoy)
4,Cc1cc(C)nc(N/C(=N/C(=O)Nc2cccc(Cl)c2)NCCSCc2[nH]cnc2C)n1 [Decoy901],Inactive (Decoy)
5,CC(/C=C/C=C(\C)C(=O)O)=C\C=C\C=C(C)\C=C\C=C(/C)C(=O)O[C@@H]1O[C@H](CO[C@@H]2O[C@H](CO)[C@@H](O)[C@H](O)[C@H]2O)[C@@H](O)[C@H](O)[C@H]1O [Decoy785],Inactive (Decoy)
6,CC(=O)Nc1ccc(S(=O)(=O)Nc2nnc(CCNS(=O)(=O)c3ccc(C)cc3)s2)cc1 [Decoy958],Inactive (Decoy)
7,VAITVLVK [Decoy793],Inactive (Decoy)
8,O=C1N=C([C@]2(C3=Nc4nnc(/N=C(\O)Nc5ccc(Cl)cc5)n4C3=O)Cc3ccccc3C2=O)n2c(/N=C(\O)Nc3ccc(Cl)cc3)nnc21 [Decoy896],Inactive (Decoy)
9,N[C@@H](CCC(=O)N[C@@H](CSCCN(CCSC[C@H](NC(=O)CC[C@H](N)C(=O)O)C(=O)NCC(=O)O)[P@](N)(=O)O)C(=O)NCC(=O)O)C(=O)O [Decoy879],Inactive (Decoy)
10,CC(=O)Nc1cccc(NC(=O)CSc2nnc(N/N=C/c3c(O)ccc4ccccc34)n2N)c1 [Decoy752],Inactive (Decoy)
11,CNC(=O)[C@H](CC(C)C)NC(=O)[C@H](Cc1c[nH]cn1)NC(=O)[C@@H](C)NC(=O)[C@@H](NC(=O)[C@H](C)NC(=O)[C@H](Cc1c[nH]c2ccccc12)NC(=O)[C@H](Cc1cnc[nH]1)NC(=O)C(C)C)C(C)C [Decoy805] (Isobutyryl-HWAV[dA]HL-NHMe),Inactive (Decoy)
12,Cc1ccc(S(=O)(=O)NCCc2nnc(NC(=O)CSCc3ccc([N+](=O)[O-])cc3)s2)cc1 [Decoy939],Inactive (Decoy)
13,CC1=CC(=O)CC(C)(C)[C@H]1/C=C/[C@@H](C)O[C@@H]1O[C@H](CO)[C@@H](O)[C@H](O)[C@H]1O[C@@H]1OC[C@](O)(CO)[C@H]1O [Decoy772],Inactive (Decoy)
14,CCCCCCCCO[C@@H]1[C@@H](O)[C@@H](O)O[C@H](Cn2c(=O)n(C[C@H]3O[C@H](O)[C@H](O)[C@@H](OCCCCCCCC)[C@@H]3O)c3cc(Cl)ccc32)[C@H]1O [Decoy956],Inactive (Decoy)
15,Cc1cc(NC(=O)CSc2nncn2C)ccc1-c1ccc(NC(=O)CSc2nncn2C)cc1C [Decoy777],Inactive (Decoy)
16,COc1ccc2cc([C@H](c3nnnn3C(C)(C)C)N(CCc3ccc(OC)c(OC)c3)Cc3ccccc3)c(=O)[nH]c2c1 [Decoy776],Inactive (Decoy)
17,C=CCO[C@@H]1[C@H]2OC(C)(C)O[C@H]2O[C@@H]1[C@H](O)Cn1c(=O)n(C[C@@H](O)[C@H]2O[C@@H]3OC(C)(C)O[C@@H]3[C@H]2OCC=C)c2cc(C)ccc21 [Decoy929],Inactive (Decoy)
18,CC(C)(CO[P@](=O)(O)O[P@](=O)(O)OC[C@H]1O[C@@H](n2cnc3c(N)ncnc32)[C@H](O)[C@@H]1OP(=O)(O)O)[C@@H](O)C(=O)NCCC(=O)NCCS [Decoy847],Inactive (Decoy)
19,CCOC(=O)[C@@H]1[C@@H](C(=O)OCC)[C@H]2/C(=N\NS(=O)(=O)c3ccc(C)cc3)[C@H]3[C@@H](C(=O)OCC)[C@@H](C(=O)OCC)[C@@H]3/C(=N\NS(=O)(=O)c3ccc(C)cc3)[C@@H]12 [Decoy764],Inactive (Decoy)
20,O=C(O)c1ccccc1Nc1ccc(C(F)(F)F)cc1Nc1ccc(CNCc2c[nH]c(=O)[nH]c2=O)cc1C(=O)O [Decoy840],Inactive (Decoy)
21,O[C@H](CNCCOc1ccccc1OCCNC[C@H](O)COc1cccc2[nH]c3ccccc3c12)COc1cccc2[nH]c3ccccc3c12 [Decoy828],Inactive (Decoy)
22,CCOC(=O)C1=C(C)NC(=O)N[C@H]1c1ccc(OCC(=O)N/N=C/c2ccc(SC)cc2)c(OC)c1 [Decoy818],Inactive (Decoy)

# Same assay, conditions: sheet 6QHD_actives_decoys; known STAT3 actives of the retrospective screening set; ref ChEMBL / literature; cited from earlier work
row,Compound,Type (known STAT3 active)
1,CNC(=O)[C@H](CCC(N)=O)NC(=O)[C@@H]1Cc2cccc3c2N1C(=O)[C@@H](NC(=O)/C=C/c1ccc(OP(=O)(O)O)cc1)CC3 [CHEMBL454365],Active

# Same assay, conditions: sheet 6QHD_actives_decoys; retrospective screening set for STAT3 SH2 domain (PDB 6QHD); […]; ref DUD-E; cited from earlier work
row,Compound,Type
1,COc1cc([C@H]2C(C#N)=C(N)Oc3[nH]nc(-c4cc(OC)c(OC)c(OC)c4)c32)ccc1OC(=O)N1CCOCC1 [Decoy695],Inactive (Decoy)
2,Cc1cc(NS(=O)(=O)c2ccc(NC(=O)CCCCC(=O)Nc3ccc(S(=O)(=O)Nc4cc(C)on4)cc3)cc2)no1 [Decoy592],Inactive (Decoy)
3,C=C(CO[C@H]1O[C@@H](CO[C@H]2OC[C@@H](O)[C@@H](O)[C@H]2O)[C@@H](O)[C@@H](O)[C@H]1O)[C@H]1Cc2c(ccc3c2O[C@@H]2COc4cc(OC)c(OC)cc4[C@H]2C3=O)O1 [Decoy686],Inactive (Decoy)

# Same assay, conditions: sheet 6QHD_actives_decoys; retrospective screening set for STAT3 SH2 domain (PDB 6QHD); decoys generated with DUD-E and presumed inactive, not tested; ref DUD-E; cited from earlier work
row,Compound,Type
1,CNC(=O)Cn1c(=O)[nH]c(NC)c(C(c2ccc(Cl)cc2)c2c(NC)[nH]c(=O)n(CC(=O)NC)c2=O)c1=O [Decoy363],Inactive (Decoy)
2,C[C@@H]1O[C@H](O[C@@H]2CC[C@]3(C)[C@H](CC[C@@H]4[C@@H]3CC[C@@]3(C)[C@@H](C5=CC(=O)OC5)CC[C@]43O)C2)C[C@H](O)[C@@H]1O[C@@H]1C[C@H](O)[C@H](O[C@H]2C[C@@H](O)[C@H](O)[C@@H](C)O2)[C@H](C)O1 [Decoy470],Inactive (Decoy)
3,COCC(=O)Nc1c(I)c(C(=O)NC[C@H](O)CO)c(I)c(C(=O)N(C)C[C@H](O)CO)c1I [Decoy333],Inactive (Decoy)
4,CCNS(=O)(=O)c1ccc(C)c(C(=O)OCC(=O)NNC(=O)c2ccccc2Cl)c1 [Decoy518],Inactive (Decoy)
5,Cc1cccn2c(=O)c(/C=C3\SC(=S)N(CCCCCC(=O)O)C3=O)c(NCCCn3ccnc3)nc12 [Decoy451],Inactive (Decoy)
6,CCN(CC)c1ccc(-n2nc3cc(C)c(NC(=S)NC(=O)c4ccc(OC)cc4OC)cc3n2)cc1 [Decoy453],Inactive (Decoy)
7,CC(=O)N[C@@H]1[C@@H](O)[C@H](O[C@@H]2O[C@H](CO)[C@H](O)[C@H](O[C@@]3(C(=O)O)C[C@H](O)[C@@H](NC(C)=O)[C@H]([C@H](O)[C@H](O)CO)O3)[C@H]2O)[C@@H](CO)O[C@H]1O [Decoy636],Inactive (Decoy)
8,O=c1ccn([C@@H]2O[C@@H](CO[P@@](=O)(O)O[P@@](=O)(O)OP(=O)(O)O)[C@@H](O)[C@@H]2O)c(=O)[nH]1 [Decoy511],Inactive (Decoy)
9,COc1ccccc1NS(=O)(=O)c1ccc(O)c(C(=O)OCC(=O)c2ccc3c(c2)NC(=O)CO3)c1 [Decoy538],Inactive (Decoy)
10,O=C(O)c1ccccc1NS(=O)(=O)c1ccc(NCCCN2CCOCC2)c([N+](=O)[O-])c1 [Decoy387],Inactive (Decoy)
11,COc1cc(NC(=O)c2cnn3c2N[C@H](c2cc(OC)c(OC)c(OC)c2)C[C@@H]3C(F)(F)F)cc([N+](=O)[O-])c1 [Decoy512],Inactive (Decoy)
12,CC[C@H]1OC(=O)[C@@H](C)[C@@H](O[C@@H]2C[C@@](C)(OC)[C@H](O)[C@H](C)O2)[C@@H](C)[C@@H](O[C@H]2O[C@@H](C)C[C@@H](N(C)C)[C@H]2O)[C@](C)(O)C[C@@H](C)/C(=N\OCOCCOC)[C@@H](C)[C@@H](O)[C@@]1(C)O [Decoy580],Inactive (Decoy)
13,Cc1ccc(NC(=O)CN(C)C(=O)[C@H](C)OC(=O)CNC(=O)c2ccc(Cl)c([N+](=O)[O-])c2)cc1 [Decoy457],Inactive (Decoy)
14,CC1=C(/C(O)=N/c2ccc(S(N)(=O)=O)cc2)[C@H](c2ccco2)C(C#N)=C(SCC(=O)Nc2cccc(C(F)(F)F)c2)N1 [Decoy409],Inactive (Decoy)
15,Cc1ccc(N(C[C@H](O)[C@@H](O)[C@H](O)CO)/N=N/c2cccc(S(=O)(=O)O)c2)cc1C [Decoy430],Inactive (Decoy)
16,CC(=O)O[C@@H]1[C@@H](O)[C@@H](O[C@@H](C/N=C/c2c(O)cc(O)c3ccccc23)[C@@H](CO)O[C@H](O)C/N=C/c2c(O)cc(O)c3ccccc23)O[C@@H](CO)[C@H]1O [Decoy475],Inactive (Decoy)
17,COC(=O)[C@@H]1[C@H](NC(=O)[C@@H]2CCOC2)c2cc(NCC(C)(C)C)cnc2N1CCc1c[nH]c2ccccc12 [Decoy468],Inactive (Decoy)
18,CCCCCN(C(=O)Cn1c(=O)n(CC)c(=O)c2ccccc21)c1c(N)n(CCCC)c(=O)[nH]c1=O [Decoy603],Inactive (Decoy)
19,CCCOc1ccc(C(=O)C2=C(O)C(=O)N(CCN3CCOCC3)[C@@H]2c2ccc(O)c(OC)c2)cc1C [Decoy564],Inactive (Decoy)
20,COC(=O)[C@@H]1[C@H](O)[C@H](C)[C@H](O)O[C@@H]1[C@H](C)[C@H](O)[C@@H](C)/C=C\C=C(/C)C(=O)Nc1c(C)c(OC(C)=O)c2c(c1O)C(=O)C(C)=C1OCOC(/C(C)=C/C(C)=O)=C12 [Decoy345],Inactive (Decoy)
21,CCCc1nc(C(C)(C)O[C@@H]2O[C@H](C(=O)O)[C@@H](O)[C@H](O)[C@H]2O)c(C(=O)O)n1Cc1ccc(-c2ccccc2-c2nnn[nH]2)cc1 [Decoy521],Inactive (Decoy)
22,COc1cc(C(=O)NCc2nnc(SCC(=O)Nc3ccc(F)cc3)n2-c2cccc(C)c2)cc(OC)c1OC [Decoy628],Inactive (Decoy)
23,CCCNC(=O)CN1CCN(c2cc(C(=O)O)c3cc(NS(=O)(=O)c4cccs4)ccc3n2)CC1 [Decoy543],Inactive (Decoy)
24,O=C(COCCN1CCN([C@@H](c2ccccc2)c2ccc(Cl)cc2)CC1)O[C@@H]1O[C@@H](CO)[C@@H](O[C@@H]2O[C@@H](CO)[C@H](O)[C@H](O)[C@H]2O)[C@H](O)[C@H]1O [Decoy462],Inactive (Decoy)
25,COC(=O)[C@@H]1O[C@H](OC/C(=N/NC(N)=O)[C@@]2(O)CC[C@@H]3[C@@H]4CC[C@@H]5C[C@H](OC(C)=O)CC[C@]5(C)[C@H]4C(=O)C[C@]32C)[C@@H](OC(C)=O)[C@H](OC(C)=O)[C@H]1OC(C)=O [Decoy339],Inactive (Decoy)
